Measurements taken from patent publication US20250230193A1, “CYCLIC COMPOUND HAVING SELECTIVE KRAS INHIBITORY EFFECT ON HRAS AND NRAS” (CHUGAI SEIYAKU KABUSHIKI KAISHA, priority 2022, published 2025).
*1 amine or outer side, *2 acyl side, *3 side chain or, on linkers, in order; H or OH if unused. Where a SMILES comes first, the peptide text is derived from it. Bridges are numbered along the chain shown (N, C = ends). [ ]: non-standard residue; d: D form. The star is where a group is joined. hPhe(3,5-F2-4-CF3) = N[C@@H](CCc1cc(F)c(C(F)(F)F)c(F)c1)C(=O)O; hPhe(3-Cl-4-CF3) = N[C@@H](CCc1ccc(C(F)(F)F)c(Cl)c1)C(=O)O; NPrPhe(4-CF3) = CCCN[C@@H](Cc1ccc(C(F)(F)F)cc1)C(=O)O; NEtPhe(4-CF3) = CCN[C@@H](Cc1ccc(C(F)(F)F)cc1)C(=O)O; NEtPhe(4-Me) = CCN[C@@H](Cc1ccc(C)cc1)C(=O)O; NMeAbu(4,4,4-F3) = CN[C@@H](CC(F)(F)F)C(=O)O; X16 = O=C([C@@H](N[*:1])C1CC(F)(F)C1)[*:2]; NMeGly(cPent) = CN[C@H](C(=O)O)C1CCCC1; NMeD = CN[C@@H](CC(=O)O)C(=O)O; NMeL = CN[C@@H](CC(C)C)C(=O)O; Ac6c = NC1(C(=O)O)CCCCC1; Morpholide = C1CN(*)CCO1; NMeA = CN[C@@H](C)C(=O)O; NMeAib = CNC(C)(C)C(=O)O; Nle = CCCC[C@H](N)C(=O)O; Piperidide = C1CCN(*)CC1; Ac5c = NC1(C(=O)O)CCCC1; Aze = O=C(O)[C@@H]1CCN1; Sar = CNCC(=O)O

Assays:
[1] = molecular target: GDP-bound HRAS wild-type protein (Homo sapiens, UniProt P01112); test: Binding to HRAS by surface plasmon resonance (SPR), Single Cycle Kinetics
Sequence of GDP-bound HRAS wild-type protein (P01112 whole entry): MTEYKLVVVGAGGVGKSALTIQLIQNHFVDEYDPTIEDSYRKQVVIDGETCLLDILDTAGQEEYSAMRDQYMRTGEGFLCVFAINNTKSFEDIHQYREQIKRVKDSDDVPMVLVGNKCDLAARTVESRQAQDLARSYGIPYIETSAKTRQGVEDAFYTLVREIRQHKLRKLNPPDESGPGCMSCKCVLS

[2] = molecular target: GDP-bound NRAS wild-type protein (Homo sapiens, UniProt P01111); test: Binding to NRAS by surface plasmon resonance (SPR), Single Cycle Kinetics
Sequence of GDP-bound NRAS wild-type protein (P01111 whole entry): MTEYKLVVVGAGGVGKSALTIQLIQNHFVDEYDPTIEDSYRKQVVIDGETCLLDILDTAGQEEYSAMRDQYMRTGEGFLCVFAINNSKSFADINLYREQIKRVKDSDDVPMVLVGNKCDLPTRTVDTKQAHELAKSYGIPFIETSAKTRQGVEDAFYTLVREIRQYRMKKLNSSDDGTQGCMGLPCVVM

[3] = SPR, GDP-bound HRAS wild-type vs GDP-bound KRAS wild-type
[4] = SPR, GDP-bound NRAS wild-type vs GDP-bound KRAS wild-type

Question: How did the “HRAS/KRAS (ratio of KD value with respect to GDP-bound HRAS wild-type protein to KD value with respect to KRAS)” value ([1]; class symbols) turn out when `CCCOC[C@H]1C(=O)N[C@@H]([C@@H](C)CC)C(=O)N(C)CC(=O)N(C)[C@H]2C/C=C\CCN(C2=O)[C@@H](Cc2ccc(C)cc2)C(=O)N(C)CC(=O)N[C@@H](CCc2cc(F)c(C(F)(F)F)c(F)c2)C(=O)N2C[C@H](OCC)C[C@H]2C(=O)NC2(CC(C)(C)C2)C(=O)N(C)[C@@H](CC(C)(C)C)C(=O)N(C)[C@H](C(=O)N(C)C)CC(=O)N1C` [PP2708] was run?
Answer: A (a compound having 10 or more and less than 20 is denoted as A)

Question: And the “NRAS/KRAS (ratio of KD value with respect to GDP-bound NRAS wild-type protein to KD value with respect to KRAS)” value ([2]; class symbols)?
Answer: A (a compound having 10 or more and less than 20 is denoted as A)

Question: `CCCN(C)C(=O)[C@@H]1CC(=O)N(C)[C@@H](C)C(=O)N[C@@H]([C@@H](C)CC)C(=O)N(C)CC(=O)N(C)[C@H]2C/C=C\CCN(C2=O)[C@@H](Cc2ccc(C(F)(F)F)cc2)C(=O)N(C)CC(=O)N[C@@H](CCc2cc(F)c(C(F)(F)F)c(F)c2)C(=O)N2C[C@H](F)C[C@H]2C(=O)NC2(CC(C)(C)C2)C(=O)N(C)[C@@H](C2CCCC2)C(=O)N1C` [PP1663] was tested. Which “HRAS/KRAS (ratio of KD value for HRAS to KD value for KRAS)” value ([1]; KD ratio, GDP-bound HRAS wild-type vs GDP-bound KRAS wild-type, SPR) did it give?
Answer: A (a compound having 10 or more and less than 20 is denoted as A)

Question: And the “NRAS/KRAS (ratio of KD value for NRAS to KD value for KRAS)” value ([2]; KD ratio, GDP-bound NRAS wild-type vs GDP-bound KRAS wild-type, SPR)?
Answer: AA (a compound having 20 or more is denoted as AA)

Question: Which “HRAS/KRAS (ratio of KD value with respect to HRAS to KD value with respect to KRAS)” value [1, 3] does the source give for `CCC[C@H]1C(=O)N[C@@H](CC(C)C)C(=O)N(CC)CC(=O)N(C)[C@H]2C/C=C\CCN(C2=O)[C@@H](Cc2ccc(C)cc2)C(=O)N(C)CC(=O)N[C@@H](CCc2ccc(C(F)(F)F)c(OC)c2)C(=O)N2C[C@H](OCC)C[C@H]2C(=O)NC2(CC(C)(C)C2)C(=O)N(C)[C@@H](C2CCCC2)C(=O)N(C)[C@H](C(=O)N(C)C)CC(=O)N1C` [PP2518] here?
Answer: A (a compound having 10 or more and less than 20 is denoted as A)

Question: And the “NRAS/KRAS (ratio of KD value with respect to NRAS to KD value with respect to KRAS)” value [2, 4]?
Answer: A (a compound having 10 or more and less than 20 is denoted as A)

Question: How did the “HRAS/KRAS (ratio of KD value with respect to GDP-bound HRAS wild-type protein to KD value with respect to KRAS)” value ([1]; SPR) turn out when `CCCN1C(=O)CN(C)C(=O)CN(C)C(=O)[C@H](C2CC(F)(F)C2)NC(=O)[C@H](CC(C)C)N(C)C(=O)C[C@@H](C(=O)N2CCOCC2)N(C)C(=O)[C@H](C2CCCC2)N(C)C(=O)C2(CCCC2)NC(=O)[C@@H]2CCCN2C(=O)[C@H](CCc2cc(F)c(C(F)(F)F)c(F)c2)NC(=O)CN(C)C(=O)[C@@H]1Cc1ccc(C(F)(F)F)cc1` [PP0769] ([NMeL][X16][Sar][Sar][NPrPhe(4-CF3)][Sar][hPhe(3,5-F2-4-CF3)]P[Ac5c][NMeGly(cPent)][NMeD]-Morpholide; lactam N-11) was run?
Answer: C (A compound having a KD ratio of 0.1 or more and less than 3 is denoted as C)

Question: And the “NRAS/KRAS (ratio of KD value with respect to GDP-bound NRAS wild-type protein to KD value with respect to KRAS)” value ([2]; SPR)?
Answer: B (a compound having 3 or more and less than 10 is denoted as B)

Question: How did the “HRAS/KRAS (ratio of KD value with respect to GDP-bound HRAS wild-type protein to KD value with respect to KRAS)” value ([1]; class symbols) turn out when `CCC[C@H]1C(=O)N[C@@H]([C@@H](C)CC)C(=O)N(C)CC(=O)N(C)[C@H]2C/C=C\CCN(C2=O)[C@@H](Cc2ccc(C(F)(F)F)cc2)C(=O)N(C)CC(=O)N[C@@H](CCc2ccc(Cl)c(Cl)c2)C(=O)N2C[C@H](OCC)C[C@H]2C(=O)NC2(CC(C)(C)C2)C(=O)N(C)[C@@H](CC2CCC2)C(=O)N(C)[C@H](C(=O)N(C)C)CC(=O)N1C` [PP2766] was run?
Answer: A (a compound having 10 or more and less than 20 is denoted as A)

Question: And the “NRAS/KRAS (ratio of KD value with respect to GDP-bound NRAS wild-type protein to KD value with respect to KRAS)” value ([2]; class symbols)?
Answer: A (a compound having 10 or more and less than 20 is denoted as A)

Question: How did the “HRAS/KRAS (ratio of KD for GDP-bound HRAS wild-type to KD for KRAS)” value ([1]; SPR) turn out when `CCCC[C@@H]1NC(=O)[C@H](CCc2ccc(C(F)(F)F)c(Cl)c2)NC(=O)CN(C)C(=O)[C@H](Cc2ccc(C)cc2)N(CC)C(=O)[C@@H]2CCN2C(=O)[C@H](C)N(C)C(=O)[C@H]([C@@H](C)CC)NC(=O)[C@H](CC(C)C)N(C)C(=O)C[C@@H](C(=O)N2CCCCC2)N(C)C(=O)[C@H](CC(C)C)NC(=O)C(C)(C)N(C)C1=O` [PP0048] ([NMeL]I[NMeA][Aze][NEtPhe(4-Me)][Sar][hPhe(3-Cl-4-CF3)][Nle][NMeAib]L[NMeD]-Piperidide; lactam N-11) was run?
Answer: C (A compound having a KD ratio of 0.1 or more and less than 3 is denoted as C)

Question: And the “NRAS/KRAS (ratio of KD for GDP-bound NRAS wild-type to KD for KRAS)” value ([2]; SPR)?
Answer: C (A compound having a KD ratio of 0.1 or more and less than 3 is denoted as C)

Question: Which results are given for `CCC[C@H]1C(=O)N[C@@H]([C@@H](C)CC)C(=O)N(C)CC(=O)N(C)[C@H]2C/C=C\CCN(C2=O)[C@@H](Cc2ccc(C(F)(F)F)cc2)C(=O)N(C)CC(=O)N[C@@H](CCc2ccc(C(F)(F)F)c(OC)c2)C(=O)N2C[C@H](OCC)C[C@H]2C(=O)NC2(CC(C)(C)C2)C(=O)N(C)[C@@H](CC(C)(C)C)C(=O)N(C)[C@H](C(=O)N(C)C)CC(=O)N1C` [PP2734]?
Answer: HRAS/KRAS (ratio of KD value with respect to GDP-bound HRAS wild-type protein to KD value with respect to KRAS) ([1]; class symbols): B (a compound having 3 or more and less than 10 is denoted as B); NRAS/KRAS (ratio of KD value with respect to GDP-bound NRAS wild-type protein to KD value with respect to KRAS) ([2]; class symbols): A (a compound having 10 or more and less than 20 is denoted as A)

Question: With `CC[C@H](C)[C@@H]1NC(=O)[C@H](CC(C)C)N(C)C(=O)C[C@@H](C(=O)N2CCOCC2)N(C)C(=O)[C@H](C2CCCC2)N(C)C(=O)C2(CCCCC2)NC(=O)[C@@H]2CCCN2C(=O)[C@H](CCc2ccc(C(F)(F)F)c(Cl)c2)NC(=O)CN(C)C(=O)[C@H](Cc2ccc(C(F)(F)F)cc2)N(CC)C(=O)[C@@H]2CCN2C(=O)[C@H](C)N(C)C1=O` [PP0222] ([NMeL]I[NMeA][Aze][NEtPhe(4-CF3)][Sar][hPhe(3-Cl-4-CF3)]P[Ac6c][NMeGly(cPent)][NMeD]-Morpholide; lactam N-11) as the compound, how does the “HRAS/KRAS (ratio of KD for GDP-bound HRAS wild-type to KD for KRAS)” value ([1]; SPR) read?
Answer: C (A compound having a KD ratio of 0.1 or more and less than 3 is denoted as C)

Question: And the “NRAS/KRAS (ratio of KD for GDP-bound NRAS wild-type to KD for KRAS)” value ([2]; SPR)?
Answer: C (A compound having a KD ratio of 0.1 or more and less than 3 is denoted as C)

Question: `CC[C@H](C)[C@@H]1NC(=O)[C@H](CC(F)(F)F)N(C)C(=O)C[C@@H](C(=O)N2CCOCC2)N(C)C(=O)[C@H](C2CCCC2)N(C)C(=O)C2(CCCC2)NC(=O)[C@@H]2CCCN2C(=O)[C@H](CCc2ccc(C(F)(F)F)c(Cl)c2)NC(=O)CN(C)C(=O)[C@H](Cc2ccc(C)cc2)N(CC)C(=O)CN(C)C(=O)CN(C)C1=O` [PP0032] ([NMeAbu(4,4,4-F3)]I[Sar][Sar][NEtPhe(4-Me)][Sar][hPhe(3-Cl-4-CF3)]P[Ac5c][NMeGly(cPent)][NMeD]-Morpholide; lactam N-11) was tested. Which “HRAS/KRAS (ratio of KD for GDP-bound HRAS wild-type to KD for KRAS)” value ([1]; SPR) did it give?
Answer: C (A compound having a KD ratio of 0.1 or more and less than 3 is denoted as C)

Question: And the “NRAS/KRAS (ratio of KD for GDP-bound NRAS wild-type to KD for KRAS)” value ([2]; SPR)?
Answer: C (A compound having a KD ratio of 0.1 or more and less than 3 is denoted as C)

Question: What does the source list for `CCC[C@H]1C(=O)N[C@@H]([C@@H](C)CC)C(=O)N(C)CC(=O)N(C)[C@H]2C/C=C\CCN(C2=O)[C@@H](Cc2ccc(C)cc2)C(=O)N(C)CC(=O)N[C@@H](CCc2ccc3sc(C)c(C)c3c2)C(=O)N2C[C@H](OCC)C[C@H]2C(=O)NC2(CC(C)(C)C2)C(=O)N(C)[C@@H](C(CC)CC)C(=O)N(C)[C@H](C(=O)N(C)C)CC(=O)N1C` [PP2902]?
Answer: HRAS/KRAS (ratio of KD value with respect to GDP-bound HRAS wild-type protein to KD value with respect to KRAS) ([1]; class symbols): A (a compound having 10 or more and less than 20 is denoted as A); NRAS/KRAS (ratio of KD value with respect to GDP-bound NRAS wild-type protein to KD value with respect to KRAS) ([2]; class symbols): AA (a compound having 20 or more is denoted as AA)

Question: How did the “HRAS/KRAS (ratio of KD value with respect to HRAS to KD value with respect to KRAS)” value [1, 3] turn out when `CCC[C@@H]1C[C@H]2C(=O)NC3(CCC3)C(=O)N(C)[C@@H](C3CCCC3)C(=O)N(C)[C@H](C(=O)N(C)C)CC(=O)N(C)[C@@H](CC(C)C)C(=O)N[C@@H]([C@@H](C)CC)C(=O)N(C)CC(=O)N(C)[C@H]3C/C=C\CCN(C3=O)[C@@H](Cc3ccc(C)cc3)C(=O)N(C)CC(=O)N[C@@H](CCc3cc(F)c(C(F)(F)F)c(F)c3)C(=O)N2C1` [PP2231] was run?
Answer: B (a compound having 3 or more and less than 10 is denoted as B)

Question: And the “NRAS/KRAS (ratio of KD value with respect to NRAS to KD value with respect to KRAS)” value [2, 4]?
Answer: A (a compound having 10 or more and less than 20 is denoted as A)
